“Also recorded” adds a separate entry of the source.
Assays:
muscle mitochondria = test: Rate of muscle mitochondrial oxygen consumption (JO2) of treated Wistar rats; type: in vivo, rat; details: 250 μg/kg BW/day, vs placebo
Description: The major part of the liver and the red part of each quadriceps were rinsed, and chopped into isolation medium (250 mM sucrose, 20 mM Tris-HCl and 1 mM EGTA-Tris, pH 7.4). Nuclei and cell debris were removed by centrifugation at 800 g for 10 min. Mitochondria were then isolated from the supernatant by spinning twice at 8,000 g for 10 minutes. The mitochondrial pellet was resuspended in 0.5 ml of isolation buffer and kept on ice. Mitochondrial protein was measured by the bicinchoninic acid method (Pierce, Rockford, Ill.). The final mitochondrial suspensions were maintained on ice and were used for measurements of oxygen consumption rate.
The rate of mitochondrial oxygen consumption (JO2) was measured at 30° C. in an incubation chamber with a Clark-type O2 electrode filled with 2 ml of incubation medium (125 mM KCl, 10 mM Pi-Tris, 20 mM Tris-HCl, 0.1 mM EGTA, pH 7.2). All measurements were performed using mitochondria (1.0 or 0.2 mg mitochondrial protein/ml for liver and skeletal muscle) incubated either with various substrates: glutamate/malate (5 mM/2.5 mM) and succinate (5 mM), alone or in combination, palmitoyl carnitine (55 μM) and octanoyl carnitine (100 μM). For each substrate, JO2 was recorded in the presence of the substrate alone (State 2) and following the addition of 1 mM ADP (state 3). Oligomycin (1.25 μg/mg protein) was added to the mitochondrial suspension to determine the non-phosphorylating respiratory rate (state 4). The incubation medium was constantly stirred with a built-in electromagnetic stirrer and bar flea. The efficiency of the mitochondrial oxidative phosphorylation was assessed by the state 3/state 4 ratio which measures the degree of control imposed on oxidation by phosphorylation (respiratory control ratio, RCR).

Wistar rats = test: Body composition (adipose tissues, skeletal muscles, brown adipose tissue) of Wistar rats; type: in vivo, rat; details: for White adipose tissue mass / Brown adipose tissue: 2.5 μg/100 g continuous
Excerpt: At the end of the experimental period, animals were sacrificed by decapitation, in order to avoid the well-known effects of general anesthetics on mitochondrial metabolism. Blood samples were immediately collected and plasma was frozen for subsequent determination of serum metabolites and hormones. Liver, muscles and fat depots were quickly excised and weighed. Liver median lobe was rapidly freeze-clamped. Muscles (plantaris, soleus and gastrocnemius) were frozen in isopentane precooled in liquid nitrogen. Mesenteric fat consisted of adipose tissue surrounding the gastro-intestinal tract from the gastro-oesophageal sphincter to the end of the rectum with special care taken in distinguishing and removing the pancreas. Retroperitoneal fat pad was taken as the distinct depot behind each kidney along the lumbar muscles. Epididymal fat consisted of adipose tissue on top of the epididymis. For subcutaneous depot measurement, a rectangular piece of skin was taken on the right side of each animal from the median line of the abdomen between the spine and the right hip to the first rib. Interscapular brown adipose tissue was removed and dissected free from adjacent muscles and white adipose tissue. The heart ventricles, the right kidney and the spleen were also excised, weighed and frozen.

[1] = 25 μg/100 g BW/day, continuous subcutaneous pellet, 8 days
[2] = 250 μg/kg BW pellet, three weeks, vs placebo, p<0.01
[3] = high dose 25 μg/100 g BW pellet, three weeks, vs placebo
[4] = low dose 2.5 μg/100 g BW, sub-cutaneous pellet, 21 days

## N[C@@H](Cc1ccc(Oc2cc(I)c(O)c(I)c2)c(I)c1)C(=O)O [rT3, 3′,5′,3-triiodothyronine]
Muscle mitochondria
  Muscle mitochondrial respiration, non-phosphorylating (state 4): failed to substantially affect
  Muscle mitochondrial respiration, phosphorylating (state 3): failed to substantially affect
Wistar rats; intra-peritoneal osmotic pump, 21 days
  White adipose tissue mass: significant reduction
Wistar rats; intra-peritoneal pump, 21 days
  Brown adipose tissue: all treatments were effective
Wistar rats; sub-cutaneous osmotic pump, 21 days
  White adipose tissue mass: significant reduction
Wistar rats; sub-cutaneous pump, 21 days
  Brown adipose tissue: more significantly enhanced
Wistar rats; 25 μg/100 g BW, 8 days, whatever the administration (pellet, IP, per os, sc)
  Muscular mass: unchanged
Wistar rats; 25 μg/100 g BW, daily intra-peritoneal injection, 8 days
  White fatty (adipose) tissue mass: have not effects
Wistar rats; 25 μg/100 g BW, daily oral administration, 8 days
  White fatty (adipose) tissue mass: have not effects
Wistar rats; 25 μg/100 g BW, daily sub-cutaneous injection, 8 days
  White fatty (adipose) tissue mass: have not effects
Wistar rats; [1]
  Brown adipose tissue mass: significantly enhanced
  White fatty (adipose) tissue mass: significant white fatty tissue mass reduction
Wistar rats; 250 μg/kg BW pellet, three weeks, vs placebo
  Epididymal fat mass: not different
Wistar rats; [2]
  Mesenteric fat mass: significantly lower
  Retroperitoneal fat mass: significantly lower
  Subcutaneous fat mass: significantly lower
Wistar rats; [3]
  Brown adipose tissue mass: significantly increased; also recorded: high increase
  Muscle mass (lean body mass): not affected at all; also recorded: do not affect
Wistar rats; low dose 2.5 μg/100 g BW
  Muscle tissues mass: do not affect
Wistar rats; [4]
  Brown adipose tissue mass: intermediate increase; also recorded: more significantly enhanced
  White adipose tissue mass (fat mass): reduces the fat mass with a lower efficiency; also recorded: significant reduction
